In ChEMBL document CHEMBL1140555, “Synthesis and evaluation of novel pyrazolidinone analogs of PGE2 as EP2 and EP4 receptors agonists” (Bioorg Med Chem Lett, 2007):
Values after ≈ are worked out from the molar mass of the structure shown.

Assays:
[1] = biological target: T1, Prostaglandin E2 receptor EP2 subtype (Homo sapiens, UniProt P43116); experiment: Binding affinity at human prostaglandin EP2 receptor
[2] = biological target: T2, Prostaglandin E2 receptor EP4 subtype (Homo sapiens, UniProt P35408); experiment: Binding affinity at human prostaglandin EP4 receptor
T2 sequence (P35408 whole entry): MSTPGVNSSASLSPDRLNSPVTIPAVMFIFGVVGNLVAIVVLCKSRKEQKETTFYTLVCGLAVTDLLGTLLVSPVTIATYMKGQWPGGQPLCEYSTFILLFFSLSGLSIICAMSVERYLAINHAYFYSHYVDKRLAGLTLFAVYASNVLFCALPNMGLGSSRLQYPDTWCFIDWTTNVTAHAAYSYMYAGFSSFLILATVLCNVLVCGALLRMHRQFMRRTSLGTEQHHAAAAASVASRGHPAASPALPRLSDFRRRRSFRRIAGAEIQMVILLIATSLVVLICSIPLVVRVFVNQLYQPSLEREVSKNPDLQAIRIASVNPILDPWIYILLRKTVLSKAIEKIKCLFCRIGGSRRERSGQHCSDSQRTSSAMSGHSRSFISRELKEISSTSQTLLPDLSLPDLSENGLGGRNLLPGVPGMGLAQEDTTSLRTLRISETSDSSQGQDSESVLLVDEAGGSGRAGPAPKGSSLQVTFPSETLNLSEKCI

[3] = biological target: T2, Prostaglandin E2 receptor EP4 subtype; experiment: Agonist activity at human prostaglandin EP4 receptor; assay type: functional
Homo sapiens = species on record: Homo sapiens; experiment: Selectivity for human EP4 over human EP2 receptor
[4] = Solubility in HBSS; assay type: physicochemical
[5] = Oral bioavailability in rat; assay type: ADME, organism-based; conditions: in vivo
[6] = Half life in rat; assay type: ADME, organism-based; conditions: in vivo
[7] = Apparent permeability of the compound; assay type: ADME; conditions: not told
[8] = Metabolic stability in rat liver microsomes after 1 hr; assay type: ADME, Microsome; conditions: read-out: Stability
[9] = Metabolic stability in human liver microsomes after 1 hr; assay type: ADME, Microsome; conditions: read-out: Stability
Mus musculus = experiment: Induction of ovulation in sc dosed CD1 mouse; assay type: functional, organism-based
[10] = Solubility in saline; assay type: physicochemical
[11] = Fraction unbound ligand in rat; assay type: ADME
[12] = biological target: T1, Prostaglandin E2 receptor EP2 subtype; experiment: Agonist activity at human prostaglandin EP2 receptor; assay type: functional

T1 sequence (P43116 whole entry): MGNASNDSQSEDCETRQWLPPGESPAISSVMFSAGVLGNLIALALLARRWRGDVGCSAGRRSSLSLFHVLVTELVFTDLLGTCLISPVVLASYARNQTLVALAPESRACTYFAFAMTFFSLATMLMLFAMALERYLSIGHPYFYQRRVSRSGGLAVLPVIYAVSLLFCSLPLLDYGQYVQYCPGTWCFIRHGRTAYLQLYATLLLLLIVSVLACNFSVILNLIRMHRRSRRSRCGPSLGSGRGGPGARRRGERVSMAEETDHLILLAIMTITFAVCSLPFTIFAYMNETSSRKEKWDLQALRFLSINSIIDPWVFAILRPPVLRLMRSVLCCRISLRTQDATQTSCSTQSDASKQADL

| Ki [1] [nM] | Ki [2] [nM] | SMILES | other results |
| --- | --- | --- | --- |
| 8340 | 330 | O=C(O)c1ccc(CCN2C(=O)CCN2CCC(O)Cc2cccc(CCC3CC3)c2)cc1 (stereo unspecified) |  |
| 2030 | 26 | O=C(O)c1ccc(CCN2C(=O)CCN2CC[C@@H](O)Cc2cccc(I)c2)cc1 |  |
| 2360 | 27 | O=C(O)c1ccc(CCN2C(=O)CCN2CCC(O)Cc2cccc(I)c2)cc1 (stereo unspecified) |  |
|  |  | O=C(O)c1ccc(CCN2C(=O)CCN2CCC(O)Cc2cccc(Cl)c2)cc1 (stereo unspecified) | EC50 [3]: 0.2 nM |
| 560 | 44 | CC(CCN1CCC(=O)N1CCc1ccc(C(=O)O)cc1)Cc1cccc(CCc2ccccc2)c1 (stereo unspecified) |  |
| 9200 | 134 | O=C(O)c1ccc(CCN2C(=O)CCN2CC[C@@H](O)Cc2ccccc2)cc1 |  |
|  |  | CCCCCC(O)CCN1CCC(=O)N1CCc1ccc(C(=O)O)cc1 (stereo unspecified) | Selectivity ratio (Homo sapiens): 10 |
| 5450 | 13 | O=C(O)c1ccc(CCN2C(=O)CCN2CCC(O)Cc2cccc(Br)c2)cc1 (stereo unspecified) | solubility [4]: 890 µg/mL (≈ 1930 µM); bioavailability [5]: 6.7%; half-life [6]: 4.25 h; Papp [7]: 10 ×10⁻⁶ cm/s; remaining at 1 h [8]: 7%; EC50 [3]: 0.2 nM; remaining at 1 h [9]: 0%; Activity (Mus musculus): Dose-dependent effect; solubility [10]: 840 µg/mL (≈ 1820 µM); fraction unbound [11]: 0.61 |
| 6000 | 57 | O=C(O)c1ccc(CCN2C(=O)CCN2CCC(O)Cc2cccc(C(F)(F)F)c2)cc1 (stereo unspecified) |  |
|  |  | O=C(O)c1ccc(CCN2C(=O)CCN2CCC(O)Cc2ccccc2)cc1 (stereo unspecified) | Selectivity ratio (Homo sapiens): 100 |
| 110 | > 10000 | CCCC1([C@H](O)C/C=C/[C@H]2[C@H](O)CC(=O)[C@@H]2CCCCCCC(=O)OC)CCC1 [BUTAPROST] |  |
| 750 | > 50000 | CCCC1(C(O)CCCN2CCC(=O)N2CCc2ccc(C(=O)O)cc2)CCC1 (stereo unspecified) | EC50 [12]: 393 nM |
| 3070 | 13 | O=C(O)c1ccc(CCN2C(=O)CCN2CC[C@@H](O)Cc2cccc(Br)c2)cc1 | EC50 [12]: > 10000 nM; EC50 [3]: 0.1 nM |
